Data as given in the supplement of paper PMC4862054.

How the values were obtained:
Conditions in all cases: incubation time: 72 h
BT-474 [1] = experiment: normalised response (% of control), CellTox Green; higher = less cell death (100 = DMSO, 0 = benzethonium chloride kill control)
Method in brief: (§1)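 In 384-well plates holding compound at 5 concentrations in 10-fold steps over a 10,000-fold range specific to each compound, breast cancer cell lines were seeded as 20 µl suspension and incubated 72 h. CellTox Green fluorescence was measured at 485/520 nm, after which CellTiter-Glo luminescence was measured following 10 min at room temperature. Plate signals were normalised to 0.1 % DMSO (100) and a positive kill control (0), and each value is the normalised signal at a single concentration.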

BT-549 [2] = experiment: as above
Method in brief: as §1

CAL-120 [3] = experiment: as above
Method in brief: as §1

CAL-148 [4] = experiment: as above
Method in brief: as §1

CAL-51 [5] = experiment: as above
Method in brief: as §1

CAL-85-1 [6] = experiment: as above
Method in brief: as §1

DU-4475 [7] = experiment: as above
Method in brief: as §1

HCC1143 [8] = experiment: as above
Method in brief: as §1

HCC1599 [9] = experiment: as above
Method in brief: as §1

HDQ-P1 [10] = experiment: as above
Method in brief: as §1

Hs578T [11] = experiment: as above
Method in brief: as §1

MCF-10A [12] = experiment: as above
Method in brief: as §1

MDA-MB-231 [13] = experiment: as above
Method in brief: as §1

MDA-MB-436 [14] = experiment: as above
Method in brief: as §1

MDA-MB-453 [15] = experiment: as above
Method in brief: as §1

MFM-223 [16] = experiment: as above
Method in brief: as §1

BT-474 [17] = experiment: normalised response (% of control), CellTiter-Glo; higher = more viable cells (100 = DMSO, 0 = benzethonium chloride kill control)
Experimental: (§2)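 DSRT, 72 h incubation, CellTox Green / CellTiter-Glo readout. Signal is normalised to DMSO and benzethonium chloride controls. Value is the normalised response at the highest dose.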

BT-549 [18] = experiment: as above
Experimental: as §2

CAL-120 [19] = experiment: as above
Experimental: as §2

CAL-148 [20] = experiment: as above
Experimental: as §2

CAL-51 [21] = experiment: as above
Experimental: as §2

CAL-85-1 [22] = experiment: as above
Experimental: as §2

DU-4475 [23] = experiment: as above
Experimental: as §2

HCC1143 [24] = experiment: as above
Experimental: as §2

HCC1599 [25] = experiment: as above
Experimental: as §2

HCC1937 [26] = experiment: as above
Experimental: as §2

HDQ-P1 [27] = experiment: as above
Experimental: as §2

Hs578T [28] = experiment: as above
Experimental: as §2

MCF-10A [29] = experiment: as above
Experimental: as §2

MDA-MB-231 [30] = experiment: as above
Experimental: as §2

MDA-MB-436 [31] = experiment: as above
Experimental: as §2

MDA-MB-453 [32] = experiment: as above
Experimental: as §2

MDA-MB-468 [33] = experiment: as above
Experimental: as §2

MFM-223 [34] = experiment: as above
Experimental: as §2

SK-BR-3 = experiment: as above
Experimental: as §2

HCC1937 [35] = experiment: normalised response (% of control), CellTox Green; higher = less cell death (100 = DMSO, 0 = benzethonium chloride kill control)
Method in brief: as §1

MDA-MB-468 [36] = experiment: as above
Method in brief: as §1

Compound: CNNCc1ccc(C(=O)NC(C)C)cc1 [Procarbazine] (10000 nM)
- normalised response (BT-474 [1]): 103%
- normalised response (BT-549 [2]): 94%
- normalised response (CAL-120 [3]): 111%
- normalised response (CAL-148 [4]): 93%
- normalised response (CAL-51 [5]): 110%
- normalised response (CAL-85-1 [6]): 72%
- normalised response (DU-4475 [7]): 96.2%
- normalised response (HCC1143 [8]): 115%
- normalised response (HCC1599 [9]): 98.3%
- normalised response (HDQ-P1 [10]): 99.9%
- normalised response (Hs578T [11]): 108%
- normalised response (MCF-10A [12]): 115%
- normalised response (MDA-MB-231 [13]): 99%
- normalised response (MDA-MB-436 [14]): 81.7%
- normalised response (MDA-MB-453 [15]): 60.5%
- normalised response (MFM-223 [16]): 94.5%
- normalised response (BT-474 [17]): 98%
- normalised response (BT-549 [18]): 101%
- normalised response (CAL-120 [19]): 106%
- normalised response (CAL-148 [20]): 107%
- normalised response (CAL-51 [21]): 96.3%
- normalised response (CAL-85-1 [22]): 99.3%
- normalised response (DU-4475 [23]): 102%
- normalised response (HCC1143 [24]): 113%
- normalised response (HCC1599 [25]): 96.8%
- normalised response (HCC1937 [26]): 103%
- normalised response (HDQ-P1 [27]): 104%
- normalised response (Hs578T [28]): 105%
- normalised response (MCF-10A [29]): 109%
- normalised response (MDA-MB-231 [30]): 103%
- normalised response (MDA-MB-436 [31]): 103%
- normalised response (MDA-MB-453 [32]): 102%
- normalised response (MDA-MB-468 [33]): 99.4%
- normalised response (MFM-223 [34]): 108%
- normalised response (SK-BR-3): 109%

Compound: c1ccc([C@H]2CN3CCSC3=N2)cc1 [Levamisole] (10000 nM)
- normalised response (BT-474 [1]): 101%
- normalised response (BT-549 [2]): 95.8%
- normalised response (CAL-120 [3]): 98.4%
- normalised response (CAL-148 [4]): 53.5%
- normalised response (CAL-51 [5]): 113%
- normalised response (CAL-85-1 [6]): 79.1%
- normalised response (DU-4475 [7]): 104%
- normalised response (HCC1143 [8]): 106%
- normalised response (HCC1599 [9]): 92.5%
- normalised response (HCC1937 [35]): 82.5%
- normalised response (HDQ-P1 [10]): 72.4%
- normalised response (Hs578T [11]): 72%
- normalised response (MCF-10A [12]): 67.3%
- normalised response (MDA-MB-453 [15]): 71.4%
- normalised response (MDA-MB-468 [36]): 110%
- normalised response (MFM-223 [16]): 95.2%
- normalised response (BT-474 [17]): 102%
- normalised response (BT-549 [18]): 96.5%
- normalised response (CAL-120 [19]): 112%
- normalised response (CAL-148 [20]): 106%
- normalised response (CAL-51 [21]): 119%
- normalised response (CAL-85-1 [22]): 94%
- normalised response (DU-4475 [23]): 98.9%
- normalised response (HCC1143 [24]): 99.3%
- normalised response (HCC1599 [25]): 114%
- normalised response (HCC1937 [26]): 100%
- normalised response (HDQ-P1 [27]): 104%
- normalised response (Hs578T [28]): 100%
- normalised response (MCF-10A [29]): 110%
- normalised response (MDA-MB-231 [30]): 104%
- normalised response (MDA-MB-436 [31]): 108%
- normalised response (MDA-MB-453 [32]): 106%
- normalised response (MDA-MB-468 [33]): 104%
- normalised response (MFM-223 [34]): 108%
- normalised response (SK-BR-3): 110%

Compound: Cc1ccc(NC(=O)c2ccc(CN3CCN(C)CC3)cc2)cc1Nc1nccc(-c2cccnc2)n1 [Imatinib] (10000 nM)
- normalised response (BT-474 [1]): 96.6%
- normalised response (BT-549 [2]): 92.7%
- normalised response (CAL-120 [3]): 101%
- normalised response (CAL-148 [4]): 103%
- normalised response (CAL-51 [5]): 93.1%
- normalised response (CAL-85-1 [6]): 84.2%
- normalised response (DU-4475 [7]): 97.9%
- normalised response (HCC1143 [8]): 91.2%
- normalised response (HCC1599 [9]): 94.8%
- normalised response (HDQ-P1 [10]): 74.4%
- normalised response (Hs578T [11]): 76.1%
- normalised response (MCF-10A [12]): 65.1%
- normalised response (MDA-MB-231 [13]): 114%
- normalised response (MDA-MB-436 [14]): 87.4%
- normalised response (MDA-MB-453 [15]): -13.7%
- normalised response (MDA-MB-468 [36]): 113%
- normalised response (MFM-223 [16]): 99.9%
- normalised response (BT-474 [17]): 87.4%
- normalised response (BT-549 [18]): 89.5%
- normalised response (CAL-120 [19]): 108%
- normalised response (CAL-148 [20]): 116%
- normalised response (CAL-51 [21]): 76.5%
- normalised response (CAL-85-1 [22]): 85.7%
- normalised response (DU-4475 [23]): 107%
- normalised response (HCC1143 [24]): 91.3%
- normalised response (HCC1599 [25]): 71.6%
- normalised response (HCC1937 [26]): 83.6%
- normalised response (HDQ-P1 [27]): 111%
- normalised response (Hs578T [28]): 98.3%
- normalised response (MCF-10A [29]): 128%
- normalised response (MDA-MB-231 [30]): 94.8%
- normalised response (MDA-MB-436 [31]): 94.3%
- normalised response (MDA-MB-453 [32]): 73.4%
- normalised response (MDA-MB-468 [33]): 86.8%
- normalised response (MFM-223 [34]): 87.7%
- normalised response (SK-BR-3): 84.7%
